According to ChEMBL document CHEMBL1909046, “DrugMatrix in vitro pharmacology data”:

Key:
[1] = DRUGMATRIX: beta-Lactamase enzyme inhibition (substrate: Nitrocefin); design: species or system Bacillus cereus; conditions: Not Active = under 50% inhibition at 10 µM
[2] = DRUGMATRIX: Calcium Channel Type L, Dihydropyridine radioligand binding (ligand: [3H] Nitrendipine); format: cell membranes, Rattus norvegicus, Wistar, Cerebral cortex, Membrane; conditions: Not Active = under 50% inhibition at 10 µM
Substance-P receptor = Substance-P receptor (Homo sapiens, UniProt P25103); format: cell membranes, CHO, Membrane; conditions: cho; further: in other assays of this panel Not Active means under 50% inhibition at 10 µM
Chain of Substance-P receptor (P25103 whole entry): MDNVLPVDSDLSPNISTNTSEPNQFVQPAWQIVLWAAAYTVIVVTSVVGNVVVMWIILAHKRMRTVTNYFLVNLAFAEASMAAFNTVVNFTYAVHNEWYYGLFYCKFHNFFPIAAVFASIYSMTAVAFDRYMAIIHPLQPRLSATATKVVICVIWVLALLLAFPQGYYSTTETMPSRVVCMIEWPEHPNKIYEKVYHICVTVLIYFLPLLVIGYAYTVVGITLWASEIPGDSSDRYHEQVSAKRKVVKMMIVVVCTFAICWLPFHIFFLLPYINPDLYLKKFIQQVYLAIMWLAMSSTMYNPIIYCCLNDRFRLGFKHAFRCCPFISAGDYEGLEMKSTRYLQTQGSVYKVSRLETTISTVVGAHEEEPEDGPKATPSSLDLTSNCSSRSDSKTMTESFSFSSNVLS

[3] = DRUGMATRIX: Calcium Channel Type L, Phenylalkylamine radioligand binding (ligand: [3H] (-)-Desmethoxyverapamil (D-888)); format: cell membranes, Rattus norvegicus, Wistar, Brain, Membrane; conditions: Not Active = under 50% inhibition at 10 µM
Carbonic anhydrase 2 = Carbonic anhydrase 2 (Homo sapiens, UniProt P00918); experiment: DRUGMATRIX: Carbonic Anhydrase II enzyme inhibition (substrate: 4-Nitrophenyl acetate (4-NPA)); format: tissue-based; conditions: erythrocyte; Not Active = under 50% inhibition at 10 µM
[4] = DRUGMATRIX: Potassium Channel [KATP] radioligand binding (ligand: [3H] Glyburide); format: cell membranes, Membrane; conditions: hit-t15; Not Active = under 50% inhibition at 10 µM
Cytochrome P450 3A4 = Cytochrome P450 3A4 (Homo sapiens, UniProt P08684); conditions: bti-tn-5b1-4; further: in other assays of this panel Not Active means under 50% inhibition at 10 µM
Chain of Cytochrome P450 3A4 (P08684 whole entry): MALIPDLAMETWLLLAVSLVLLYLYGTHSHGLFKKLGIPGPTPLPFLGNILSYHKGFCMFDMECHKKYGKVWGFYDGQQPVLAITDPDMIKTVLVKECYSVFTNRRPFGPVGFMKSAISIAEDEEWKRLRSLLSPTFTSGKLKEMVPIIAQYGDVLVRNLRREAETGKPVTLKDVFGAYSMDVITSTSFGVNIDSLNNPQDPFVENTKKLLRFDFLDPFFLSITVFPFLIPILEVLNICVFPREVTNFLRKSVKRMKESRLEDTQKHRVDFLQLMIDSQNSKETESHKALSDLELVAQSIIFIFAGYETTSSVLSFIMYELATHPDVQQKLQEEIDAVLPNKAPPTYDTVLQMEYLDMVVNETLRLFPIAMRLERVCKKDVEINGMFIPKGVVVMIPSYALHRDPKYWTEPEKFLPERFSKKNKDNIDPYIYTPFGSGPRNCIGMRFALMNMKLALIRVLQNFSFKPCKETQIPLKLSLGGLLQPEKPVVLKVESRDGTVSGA

O=C1C(CC[S+]([O-])c2ccccc2)C(=O)N(c2ccccc2)N1c1ccccc1 (stereo unspecified) [SULFINPYRAZONE]
Not Active: IC50 [1] | Ki [1] | IC50 [2] | Ki [2] | IC50 (Substance-P receptor) | IC50 [3] | Ki [3] | IC50 (Carbonic anhydrase 2) | IC50 [4] | Ki [4] | IC50 (Cytochrome P450 3A4) | Ki (Cytochrome P450 3A4)

CCN(CC)CCNC(=O)c1cc(S(C)(=O)=O)ccc1OC [TIAPRIDE]
Not Active: IC50 [1] | Ki [1] | IC50 [2] | Ki [2] | IC50 (Substance-P receptor) | IC50 [3] | Ki [3] | IC50 (Carbonic anhydrase 2) | IC50 [4] | Ki [4] | IC50 (Cytochrome P450 3A4) | Ki (Cytochrome P450 3A4)

CCCCOc1cc(CC2CNC(=O)N2)ccc1OC (stereo unspecified) [RO-201724]
Not Active: IC50 [1] | Ki [1] | IC50 [2] | Ki [2] | IC50 (Substance-P receptor) | IC50 [3] | Ki [3] | IC50 (Carbonic anhydrase 2) | IC50 [4] | Ki [4] | IC50 (Cytochrome P450 3A4) | Ki (Cytochrome P450 3A4)
